The source of these data is patent publication US12624067B2, “Cyclic peptide, cell scaffold material, cell separating material, and medium” (FUJIFILM Corporation, priority 2019, dated 2026).

Numbered stars: 1 amine (or outer) side, 2 acyl side, 3 side chain; on linkers, the order of the positions; unused ones are H or OH. Bridge positions count the residues as written; N and C are the ends. Square brackets hold non-standard residues; d marks the D form. Peptide text beside a SMILES is read from it. hCys = N[C@@H](CCS)C(=O)O; Orn = NCCC[C@H](N)C(=O)O; Dab = NCC[C@H](N)C(=O)O; Dap = NC[C@H](N)C(=O)O; X1 = O=C(C[*:1])[*:2]; X2 = O=C(C[*:2])[*:1]

The nature of series [1]: Evaluation of molecule stability (alkali treatment, LC/MS residual rate). Type of series: physicochemical. The following applies: 500 μM peptide plus equivalent of 1 M sodium hydroxide, 15° C., 20 minutes, LC/MS peak area. The protocol: The molecule stability of the cyclic peptide was evaluated by analyzing the alkali-treated cyclic peptide aqueous solution by liquid chromatography mass spectroscopy (LC/MS).
The alkali treatment was carried out by the following method. A 500 μM cyclic peptide aqueous solution was prepared, an equivalent of 1 M sodium hydroxide aqueous solution was added to this aqueous solution, and the resultant mixture was incubated at 15° C. for 20 minutes to obtain an alkali-treated cyclic peptide aqueous solution. The cyclic peptide residual rate was calculated by setting the total area of all peaks of the cyclic peptide before alkali treatment in LC/MS to 100% and determining the proportion of the total area of all peaks in LC/MS of the alkali-treated cyclic peptide aqueous solution, and the molecule stability was evaluated according to the following evaluation standards. It is preferable that the evaluation result satisfies the evaluation standard A, B, or C.
The conditions of the LC/MS used for the evaluation of molecule stability were set as follows. • LC apparatus: Prominence series (pump, column oven, autosampler, detector) (manufactured by Shimadzu Corporation) • MS detector: LC/MS2010EV (manufactured by Shimadzu Corporation) • Column: Cadenza CD-C18, inner diameter 2.0 mm×length 250 mm, particle size: 3 μm (manufactured by Imtakt Corporation) • Eluent A: a solution (pH 3) containing 10 mM ammonium formate as a solute, where the solvent is 100% water. • Eluent B: a solution (pH 3) containing 10 mM ammonium formate as a solute, where the solvent is acetonitrile/water=90/10. • Flow rate: 0.2 mL/min • Injection volume: 4 μL • Gradient: 0% to 30%: Eluent B (0 to 30 minutes), 100%: Eluent B (30 to 40 minutes), 0%: Eluent B (40 to 60 minutes)(B indicates the eluent B) • Column temperature: 45° C. • Ionization method: electrospray ionization (ESI) positive, ESI negative

For the next series, the target named is human integrin αvβ5 (Homo sapiens, UniProt P06756+P18084). The experiment in a line: Evaluation of integrin binding property (surface plasmon resonance, Biacore 3000, immobilized cyclic peptide). Conditions: peptide immobilized on CM5 sensor chip; human integrin αvβ5 30-1,000 nM, 25° C., HEPES buffer with 5 mM magnesium chloride; read-out: Integrin binding property (dissociation constant). The protocol:
A commercially available CM5 sensor chip (a carboxymethyl dextran introduction type, manufactured by GE Healthcare) was set in a surface plasmon resonance apparatus (product name: Biacore 3000, manufactured by GE Healthcare), the sensor was stabilized at a flow rate of 10 μL/min of a 4-(2-hydroxyethyl)-1-piperazineethanesulfonic acid (HEPES) buffer solution (20 mM HEPES-HCl, 150 mM NaCl, pH 7.4) for surface plasmon resonance (SPR), and 70 μL of a mixed aqueous solution of 0.2 M 1-(3-dimethylaminopropyl)-3-ethylcarbodiimide (EDC) and 0.04 M N-hydroxysuccinimide (NHS) was added thereto. Then, 300 μL of the sample solution of each of the above cyclic peptides diluted to 0.2 g/L with the HEPES buffer solution was supplied to the sensor chip, blocking treatment was subsequently carried out with an ethanolamine solution, and washing was carried out with a sodium hydroxide aqueous solution, whereby immobilization was carried out. However, only for the cyclic peptide 22, in which the number of lysine residues having an amino group as the immobilizing functional group was 1, the sample solution to be supplied to the sensor chip was set to 5,000 μL instead of 300 μL. Similarly; 70 μL of the mixed aqueous solution of 0.2 M EDC and 0.04 M NHS was added to another flow channel of the same sensor chip without immobilizing the sample, and then blocking treatment and washing treatment were carried out. Hereinafter, the obtained immobilization-treated sensor chip is referred to as an “immobilization-treated sensor chip A”.
After adding human integrin αvβ5 for 10 minutes at 25° C., which was diluted to 30 nM using a HEPES buffer solution to which magnesium chloride was added to 5 mM, in each flow channel of the immobilization-treated sensor chip A prepared in (1) above, the same HEPES buffer solution (containing 5 mM magnesium chloride) was allowed to flow as a running buffer for 30 minutes, and measurement was carried out with Biacore 3000.
Then, a regeneration treatment of removing human integrin αvβ5 was carried out by allowing a 0.5 M EDTA aqueous solution to flow through each flow channel for 10 minutes. Further, the above-described measurement process consisting of adding integrin for 10 minutes, allowing a running buffer to flow for 30 minutes, carrying out measurement with Biacore 3000, and carrying out regeneration treatment with 0.5 M EDTA aqueous solution was carried out in the same manner for 100 nM human integrin αvβ5, 300 nM human integrin αvβ5, and 1,000 nM human integrin αvβ5. Dissociation constant between the cyclic peptide and human integrin αvβ5 was calculated from the difference between the value measured by Biacore 3000 in the flow channel immobilized with the cyclic peptide and the value measured by Biacore 3000 in the flow channel unimmobilized with the cyclic peptide, in a case where each concentration of human integrin αvβ5 was allowed to flow; and the integrin binding property was evaluated according to the following evaluation standards. It is preferable that the evaluation result satisfies the evaluation standard A, B, or C.
(In SPR one partner is held on a chip, and binding of the other changes the refractive index at the surface.)

human integrin αvβ5, sequence (P06756 31-889 limits assumed): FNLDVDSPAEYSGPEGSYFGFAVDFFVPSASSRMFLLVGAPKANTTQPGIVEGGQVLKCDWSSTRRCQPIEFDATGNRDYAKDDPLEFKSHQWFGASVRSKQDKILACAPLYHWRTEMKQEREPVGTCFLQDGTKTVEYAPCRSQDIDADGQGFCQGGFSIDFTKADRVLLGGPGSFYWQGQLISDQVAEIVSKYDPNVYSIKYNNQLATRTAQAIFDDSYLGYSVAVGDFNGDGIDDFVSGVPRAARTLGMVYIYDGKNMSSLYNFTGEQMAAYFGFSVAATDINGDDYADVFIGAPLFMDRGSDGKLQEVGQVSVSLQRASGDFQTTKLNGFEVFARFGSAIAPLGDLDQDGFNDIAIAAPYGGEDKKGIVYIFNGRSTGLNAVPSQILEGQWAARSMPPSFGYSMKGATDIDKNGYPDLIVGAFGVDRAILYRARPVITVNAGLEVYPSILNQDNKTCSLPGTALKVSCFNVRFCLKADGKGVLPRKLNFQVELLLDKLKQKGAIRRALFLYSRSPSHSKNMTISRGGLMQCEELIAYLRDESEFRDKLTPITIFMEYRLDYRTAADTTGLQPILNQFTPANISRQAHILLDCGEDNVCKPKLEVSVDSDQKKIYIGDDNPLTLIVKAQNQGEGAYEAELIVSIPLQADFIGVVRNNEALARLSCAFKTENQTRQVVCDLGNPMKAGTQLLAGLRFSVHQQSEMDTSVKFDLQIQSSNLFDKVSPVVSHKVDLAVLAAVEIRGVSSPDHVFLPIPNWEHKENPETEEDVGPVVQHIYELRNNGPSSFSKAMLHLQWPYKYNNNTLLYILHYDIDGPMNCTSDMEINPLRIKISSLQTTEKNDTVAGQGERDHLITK
human integrin αvβ5, sequence (P06756 891-1048 partner limits assumed): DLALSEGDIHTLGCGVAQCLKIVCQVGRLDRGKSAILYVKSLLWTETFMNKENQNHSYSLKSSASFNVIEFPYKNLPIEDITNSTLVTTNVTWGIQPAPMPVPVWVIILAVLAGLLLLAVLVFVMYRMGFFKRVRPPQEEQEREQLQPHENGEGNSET
human integrin αvβ5, sequence (P18084 24-799): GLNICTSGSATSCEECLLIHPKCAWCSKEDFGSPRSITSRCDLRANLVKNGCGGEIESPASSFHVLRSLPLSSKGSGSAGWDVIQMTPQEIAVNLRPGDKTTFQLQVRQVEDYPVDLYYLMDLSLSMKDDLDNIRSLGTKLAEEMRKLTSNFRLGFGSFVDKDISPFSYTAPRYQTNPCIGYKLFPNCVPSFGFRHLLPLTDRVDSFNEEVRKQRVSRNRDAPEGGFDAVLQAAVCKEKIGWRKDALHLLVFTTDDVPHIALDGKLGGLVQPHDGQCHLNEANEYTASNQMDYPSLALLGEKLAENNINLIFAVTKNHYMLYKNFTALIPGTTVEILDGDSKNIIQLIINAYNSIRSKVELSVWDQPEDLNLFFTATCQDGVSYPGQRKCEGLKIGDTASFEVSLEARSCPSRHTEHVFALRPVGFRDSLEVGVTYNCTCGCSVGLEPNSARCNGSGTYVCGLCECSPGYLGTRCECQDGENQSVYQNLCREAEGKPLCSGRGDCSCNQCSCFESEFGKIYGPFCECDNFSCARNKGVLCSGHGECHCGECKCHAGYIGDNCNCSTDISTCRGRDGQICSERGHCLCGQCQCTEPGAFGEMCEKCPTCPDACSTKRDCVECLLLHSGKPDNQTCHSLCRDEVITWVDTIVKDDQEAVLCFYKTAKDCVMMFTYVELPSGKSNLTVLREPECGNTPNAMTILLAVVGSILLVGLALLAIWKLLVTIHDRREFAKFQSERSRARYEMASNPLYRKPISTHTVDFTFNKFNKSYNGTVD

With `CC[C@H](C)[C@@H]1NC(=O)CSC[C@@H](C(=O)N[C@@H](CCCCN)C(=O)N[C@@H](CCCCN)C(=O)N[C@@H](CCCCN)C(=O)O)NC(=O)[C@H](Cc2ccccc2)NC(=O)[C@@H]2CCCNC(=O)CSC[C@H](NC1=O)C(=O)N[C@@H](CCCNC(=N)N)C(=O)NCC(=O)N[C@@H](CC(=O)O)C(=O)N2` [Cyclic peptide 10] ({CH2CO}-ICRGD[Orn]FCKKK-OH; linker 2-6 via X1; thioether N-8), the “Molecule stability (cyclic peptide residual rate)” value in series [1] is “B (The residual rate of the cyclic peptide is 50% or more and less than 70%.)”. Also, at human integrin αvβ5, the Kd lay within 50 to 100 nM.

With `CC[C@H](C)[C@@H]1NC(=O)CSCC[C@@H](C(=O)N[C@@H](CCCCN)C(=O)N[C@@H](CCCCN)C(=O)N[C@@H](CCCCN)C(=O)O)NC(=O)[C@H](Cc2ccccc2)NC(=O)[C@@H]2CCCCNC(=O)CSCC[C@H](NC1=O)C(=O)N[C@@H](CCCNC(=N)N)C(=O)NCC(=O)N[C@@H](CC(=O)O)C(=O)N2` [Cyclic peptide 11] ({CH2CO}-I[hCys]RGDKF[hCys]KKK-OH; linker 2-6 via X1; thioether N-8), the “Molecule stability (cyclic peptide residual rate)” value in series [1] is “A (The residual rate of the cyclic peptide is 70% or more.)”. Moreover, the Kd on human integrin αvβ5 was less than 50 nM.

`CC[C@H](C)[C@@H]1NC(=O)CSC[C@@H](C(=O)N[C@@H](CCCCN)C(=O)N[C@@H](CCCCN)C(=O)N[C@@H](CCCCN)C(=O)O)NC(=O)[C@H](Cc2ccccc2)NC(=O)[C@@H]2CCCCNC(=O)CSC[C@H](NC1=O)C(=O)N[C@@H](CCCNC(=N)N)C(=O)NCC(=O)N[C@@H](CC(=O)O)C(=O)N2` [Cyclic peptide 12] ({CH2CO}-ICRGDKFCKKK-OH; linker 2-6 via X1; thioether N-8): the “Molecule stability (cyclic peptide residual rate)” value in series [1] was “B (The residual rate of the cyclic peptide is 50% or more and less than 70%.)”. At human integrin αvβ5, the Kd was less than 50 nM.

`CC[C@H](C)[C@@H]1NC(=O)CSC[C@@H](C(=O)N[C@@H](CCCCN)C(=O)N[C@@H](CCCCN)C(=O)N[C@@H](CCCCN)C(=O)O)NC(=O)[C@H](Cc2ccccc2)NC(=O)[C@@H]2CCSCC(=O)NC[C@H](NC1=O)C(=O)N[C@@H](CCCNC(=N)N)C(=O)NCC(=O)N[C@@H](CC(=O)O)C(=O)N2` [Cyclic peptide 13] ({CH2CO}-I[Dap]RGD[hCys]FCKKK-OH; linker 2-6 via X2; thioether N-8): in series [1], the “Molecule stability (cyclic peptide residual rate)” value is “A (The residual rate of the cyclic peptide is 70% or more.)”. For the same molecule, the Kd at human integrin αvβ5 was 50 to 100 nM.

For the molecule `CC[C@H](C)[C@@H]1NC(=O)CSCC[C@@H](C(=O)N[C@@H](CCCCN)C(=O)N[C@@H](CCCCN)C(=O)N[C@@H](CCCCN)C(=O)O)NC(=O)[C@H](Cc2ccccc2)NC(=O)[C@@H]2CSCC(=O)NC[C@H](NC1=O)C(=O)N[C@@H](CCCNC(=N)N)C(=O)NCC(=O)N[C@@H](CC(=O)O)C(=O)N2` [Cyclic peptide 14] ({CH2CO}-I[Dap]RGDCF[hCys]KKK-OH; linker 2-6 via X2; thioether N-8), the “Molecule stability (cyclic peptide residual rate)” value in series [1] is recorded as “A (The residual rate of the cyclic peptide is 70% or more.)”. Also, the Kd on human integrin αvβ5 is less than 50 nM.

For the molecule `CC[C@H](C)[C@@H]1NC(=O)CSC[C@@H](C(=O)N[C@@H](CCCCN)C(=O)N[C@@H](CCCCN)C(=O)N[C@@H](CCCCN)C(=O)O)NC(=O)[C@H](Cc2ccccc2)NC(=O)[C@@H]2CCSCC(=O)NCCC[C@H](NC1=O)C(=O)N[C@@H](CCCNC(=N)N)C(=O)NCC(=O)N[C@@H](CC(=O)O)C(=O)N2` [Cyclic peptide 15] ({CH2CO}-I[Orn]RGD[hCys]FCKKK-OH; linker 2-6 via X2; thioether N-8), in series [1], the “Molecule stability (cyclic peptide residual rate)” value was “A (The residual rate of the cyclic peptide is 70% or more.)”. The Kd on human integrin αvβ5 is less than 50 nM.

As for `CC[C@H](C)[C@@H]1NC(=O)CSCC[C@@H](C(=O)N[C@@H](CCCCN)C(=O)N[C@@H](CCCCN)C(=O)N[C@@H](CCCCN)C(=O)O)NC(=O)[C@H](Cc2ccccc2)NC(=O)[C@@H]2CSCC(=O)NCCC[C@H](NC1=O)C(=O)N[C@@H](CCCNC(=N)N)C(=O)NCC(=O)N[C@@H](CC(=O)O)C(=O)N2` [Cyclic peptide 16] ({CH2CO}-I[Orn]RGDCF[hCys]KKK-OH; linker 2-6 via X2; thioether N-8), in series [1], the “Molecule stability (cyclic peptide residual rate)” value is on record as “A (The residual rate of the cyclic peptide is 70% or more.)”. Moreover, the Kd at human integrin αvβ5 was less than 50 nM.

Regarding `CC[C@H](C)[C@@H]1NC(=O)CSC[C@@H](C(=O)N[C@@H](CCCCN)C(=O)N[C@@H](CCCCN)C(=O)N[C@@H](CCCCN)C(=O)O)NC(=O)[C@H](Cc2ccccc2)NC(=O)[C@@H]2CCCCNC(=O)CSCC[C@H](NC1=O)C(=O)N[C@@H](CCCNC(=N)N)C(=O)NCC(=O)N[C@@H](CC(=O)O)C(=O)N2` [Cyclic peptide 17] ({CH2CO}-I[hCys]RGDKFCKKK-OH; linker 2-6 via X1; thioether N-8), the “Molecule stability (cyclic peptide residual rate)” value in series [1] is “A (The residual rate of the cyclic peptide is 70% or more.)”. In addition, on human integrin αvβ5, the Kd was less than 50 nM.

For the molecule `CC[C@H](C)[C@@H]1NC(=O)CSCC[C@@H](C(=O)N[C@@H](CCCCN)C(=O)N[C@@H](CCCCN)C(=O)N[C@@H](CCCCN)C(=O)O)NC(=O)[C@H](Cc2ccccc2)NC(=O)[C@@H]2CCCCNC(=O)CSC[C@H](NC1=O)C(=O)N[C@@H](CCCNC(=N)N)C(=O)NCC(=O)N[C@@H](CC(=O)O)C(=O)N2` [Cyclic peptide 18] ({CH2CO}-ICRGDKF[hCys]KKK-OH; linker 2-6 via X1; thioether N-8), in series [1], the “Molecule stability (cyclic peptide residual rate)” value is on record as “A (The residual rate of the cyclic peptide is 70% or more.)”. Besides, at human integrin αvβ5, the Kd is less than 50 nM.

Regarding `CC[C@H](C)[C@@H]1NC(=O)CSC[C@@H](C(=O)N[C@@H](CCCCN)C(=O)N[C@@H](CCCCN)C(=O)N[C@@H](CCCCN)C(=O)O)NC(=O)[C@H](Cc2ccccc2)NC(=O)[C@@H]2CCNC(=O)CSCC[C@H](NC1=O)C(=O)N[C@@H](CCCNC(=N)N)C(=O)NCC(=O)N[C@@H](CC(=O)O)C(=O)N2` [Cyclic peptide 19] ({CH2CO}-I[hCys]RGD[Dab]FCKKK-OH; linker 2-6 via X1; thioether N-8), the “Molecule stability (cyclic peptide residual rate)” value in series [1] is recorded as “A (The residual rate of the cyclic peptide is 70% or more.)”. The Kd on human integrin αvβ5 was 50 to 100 nM.

On to `CC[C@H](C)[C@@H]1NC(=O)CSCC[C@@H](C(=O)N[C@@H](CCCCN)C(=O)N[C@@H](CCCCN)C(=O)N[C@@H](CCCCN)C(=O)O)NC(=O)[C@H](Cc2ccccc2)NC(=O)[C@@H]2CCNC(=O)CSC[C@H](NC1=O)C(=O)N[C@@H](CCCNC(=N)N)C(=O)NCC(=O)N[C@@H](CC(=O)O)C(=O)N2` [Cyclic peptide 20] ({CH2CO}-ICRGD[Dab]F[hCys]KKK-OH; linker 2-6 via X1; thioether N-8), for which the “Molecule stability (cyclic peptide residual rate)” value in series [1] was “A (The residual rate of the cyclic peptide is 70% or more.)”. Also, at human integrin αvβ5, the Kd was less than 50 nM.
